Assay results published in US12398107B2, “Fungicidal nitroanilino substituted pyrazoles” (FMC Corporation, priority 2018, dated 2025).

How the values were obtained:
Assay type in all cases: in vivo
Septoria tritici = assay: Test A: wheat leaf blotch, preventive spray on wheat seedlings; details: 100 = 100% disease control, 0 = no control relative to controls; for Test A disease control rating (wheat leaf blotch) / pest or weed control at 50 ppm: 50 ppm
Outline: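 Compounds were suspended in acetone/water (50/50) with 250 ppm PEG400 and sprayed to run-off on wheat seedlings. The next day the seedlings were inoculated with Septoria tritici spores, held 48 h at 24 °C in saturated humidity, then 17 days at 20 °C. Disease control was rated 0–100 relative to controls.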

[1] = system: Puccinia recondita f. sp. tritici; assay: Test B: wheat leaf rust, preventive spray on wheat seedlings; details: 100 = 100% disease control, 0 = no control relative to controls; for Test B disease control rating (wheat leaf rust) / pest or weed control at 50 ppm: 50 ppm
Outline: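 Compounds in acetone/water (50/50) with 250 ppm PEG400, sprayed to run-off on wheat seedlings at stated ppm; inoculated next day with P. recondita spores. Held 24 h saturated at 20° C., then 7 days in growth chamber at 20° C.; rating 0–100 = % disease control vs controls.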

[2] = system: Blumeria graminis f. sp. tritici; assay: Test C: wheat powdery mildew, preventive spray on wheat seedlings; details: rated after 8 days, 100 = 100% disease control, 0 = no control; for Test C disease control rating (wheat powdery mildew) / pest or weed control at 50 ppm: 50 ppm
Outline: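 Compound dissolved in acetone (3% of final volume), then suspended in 50/50 acetone/water with 250 ppm PEG400 and sprayed to run-off on wheat seedlings. Inoculated next day with B. graminis f. sp. tritici spore dust, kept 8 days at 20° C; visual rating, 100 = full control, 0 = none, relative to controls.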

Phakopsora pachyrhizi = assay: Test D: Asian soybean rust, preventive spray on soybean seedlings; details: 100 = 100% disease control, 0 = no control; for Test D disease control rating (Asian soybean rust) / pest or weed control at 50 ppm: 50 ppm
Outline: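 Soybean seedlings sprayed to run-off with compound suspension (ppm, in 50/50 acetone/water with 250 ppm PEG400), inoculated next day with P. pachyrhizi spores, held 24 h saturated at 22°C then 8 days at 22°C. Visual rating 0-100% disease control relative to controls.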

Botrytis cinerea = assay: Test E: tomato Botrytis, preventive spray on tomato seedlings; details: 100 = 100% disease control, 0 = no control; for Test E disease control rating (tomato Botrytis) / pest or weed control at 50 ppm: 50 ppm
Outline: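 Tomato seedlings sprayed to run-off with compound (ppm) in acetone/water with 250 ppm PEG400, then inoculated next day with B. cinerea spores. Held 48 h at 20 °C in saturated atmosphere, then 3 days at 24 °C. Visual rating 0–100% disease control relative to untreated controls.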

Alternaria solani = assay: Test F: tomato early blight, preventive spray on tomato seedlings; details: 100 = 100% disease control, 0 = no control; for Test F disease control rating (tomato early blight) / pest or weed control at 50 ppm: 50 ppm
Outline: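 Compounds in acetone/water (50/50) with 250 ppm PEG400, dosed in ppm, sprayed to run-off on tomato seedlings; next day inoculated with A. solani spores. Held 48 h saturated at 27° C, then 3 days at 20° C; visual rating 0–100% disease control relative to controls.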

[3] = Zymoseptoria tritici, read-out: Test A disease control rating (wheat leaf blotch)
[4] = read-out: Test B disease control rating (wheat leaf rust)
[5] = Blumeria graminis, 192 h, read-out: Test C disease control rating (wheat powdery mildew)
[6] = Phakopsora pachyrhizi, read-out: Test D disease control rating (Asian soybean rust)
[7] = Botrytis cinerea, read-out: Test E disease control rating (tomato Botrytis)
[8] = Alternaria solani, read-out: Test F disease control rating (tomato early blight)

COc1ccc(Nc2c(-c3ccc(C#N)cc3Br)c(C)nn2C)c([N+](=O)[O-])c1 [Compound 180]
Test A disease control rating (wheat leaf blotch) (Septoria tritici): 100% | Test B disease control rating (wheat leaf rust) [1]: 98% | Test C disease control rating (wheat powdery mildew) [2]: 79% | Test D disease control rating (Asian soybean rust) (Phakopsora pachyrhizi): 0% | Test E disease control rating (tomato Botrytis) (Botrytis cinerea): 99% | Test F disease control rating (tomato early blight) (Alternaria solani): 98%

COc1cc(F)c(Nc2c(-c3ccc(F)cc3F)c(C)nn2C)c([N+](=O)[O-])c1 [Compound 57, 4-(2,4-difluorophenyl)-N-(2-fluoro-4-methoxy-6-nitrophenyl)-1,3-dimethyl-1H-pyrazol-5-amine]
pest or weed control at 50 ppm (Septoria tritici; [3]): 100% | pest or weed control at 50 ppm [1, 4]: 100% | pest or weed control at 50 ppm [2, 5]: 100% | pest or weed control at 50 ppm (Phakopsora pachyrhizi; [6]): 96% | pest or weed control at 50 ppm (Botrytis cinerea; [7]): 100% | pest or weed control at 50 ppm (Alternaria solani; [8]): 100%

Cc1nn(C)c(Nc2ccc(OC(F)F)cc2[N+](=O)[O-])c1-c1ccc(F)cc1Cl [Compound 28]
Test A disease control rating (wheat leaf blotch) (Septoria tritici): 91% | Test B disease control rating (wheat leaf rust) [1]: 68% | Test C disease control rating (wheat powdery mildew) [2]: 69% | Test D disease control rating (Asian soybean rust) (Phakopsora pachyrhizi): 0% | Test E disease control rating (tomato Botrytis) (Botrytis cinerea): 99% | Test F disease control rating (tomato early blight) (Alternaria solani): 0%

COc1ccc(-c2c(C)nn(C)c2Nc2c(F)cc(Cl)cc2[N+](=O)[O-])c(Cl)c1 [Compound 81]
Test A disease control rating (wheat leaf blotch) (Septoria tritici): 100% | Test B disease control rating (wheat leaf rust) [1]: 99% | Test C disease control rating (wheat powdery mildew) [2]: 89% | Test D disease control rating (Asian soybean rust) (Phakopsora pachyrhizi): 0% | Test E disease control rating (tomato Botrytis) (Botrytis cinerea): 95% | Test F disease control rating (tomato early blight) (Alternaria solani): 99%

Cc1nn(C)c(Nc2c(F)cccc2[N+](=O)[O-])c1-c1c(F)cc(F)cc1Cl [Compound 68, 4-(2-chloro-4,6-difluorophenyl)-N-(2-fluoro-6-nitrophenyl)-1,3-dimethyl-1H-pyrazol-5-amine]
pest or weed control at 10 ppm (Septoria tritici; Zymoseptoria tritici, 10 ppm, read-out: Test A disease control rating (wheat leaf blotch)): 100% | pest or weed control at 50 ppm (Septoria tritici; [3]): 100% | pest or weed control at 10 ppm ([1]; 10 ppm, read-out: Test B disease control rating (wheat leaf rust)): 100% | pest or weed control at 50 ppm [1, 4]: 100% | pest or weed control at 10 ppm ([2]; Blumeria graminis, 192 h, 10 ppm, read-out: Test C disease control rating (wheat powdery mildew)): 96% | pest or weed control at 50 ppm [2, 5]: 100% | pest or weed control at 10 ppm (Phakopsora pachyrhizi; Phakopsora pachyrhizi, 10 ppm, read-out: Test D disease control rating (Asian soybean rust)): 32% | pest or weed control at 50 ppm (Phakopsora pachyrhizi; [6]): 99% | pest or weed control at 10 ppm (Botrytis cinerea; Botrytis cinerea, 10 ppm, read-out: Test E disease control rating (tomato Botrytis)): 100% | pest or weed control at 50 ppm (Botrytis cinerea; [7]): 100% | pest or weed control at 10 ppm (Alternaria solani; Alternaria solani, 10 ppm, read-out: Test F disease control rating (tomato early blight)): 98% | pest or weed control at 50 ppm (Alternaria solani; [8]): 99%
